# Data taken from patent publication US9700057B2, “Bradyrhizobium strains” (NOVOZYMES BIOAG A/S, priority 2011, dated 2017).
# System: parental strain USDA 532C
# Assay: Kill rate of USDA 532C using the mutagen ethyl methanesulfonate (EMS)
# Format: cell-based, Bradyrhizobia japonicum
# Description: The following experiment(s) were performed to determine the application rate of the mutagen, ethyl methanosulfonate (EMS) that would give a 99.9-99.99 percent kill rate for parental strain USDA 532C. This rate determination will become part of the mutagenesis protocol used to generate desiccation-resistant putative mutants although the method of mutagenesis may evolve for efficiency.
# Parental strain USDA 532C was grown in six 10 ml YEM disposable culture tubes for two days and 5 ml of the culture was inoculated into four 250 ml flasks containing 50 ml YEM medium. The flasks were incubated for two days at 30° C. shaker. The culture from the flasks were subsequently centrifuged in 50 ml disposable sterile tubes at 8,000 rpm for ten minutes in a Sorvall RC 6 Plus® centrifuge and combined into one tube. The pellet was re-suspended in 4 ml of fresh YEM medium and separated into four 1.5 ml microcentrifuge tubes. The tubes would each represent different application rates used for the mutagenesis process.
# Once the culture have been aliquoted into separate tubes and the mutagen EMS (Sigma, C3H8O3S, FW 124.16, #M0880-1G) added to each tube, the tubes were vortexed vigorously and placed in an empty 250 ml flask. The flask containing the reaction tubes were incubated for 30 minutes at 30° C. in a shaker. Immediately following the incubation period, the tubes were washed five times with 0.16M sodium thiosulfate (STS, Fisher Chemical, Na2S2O3*5H2O, FW 248.18, #S445-3)) solution to inactivate the mutagen. After washing, the cells in the reaction tubes were sheared with 21 gauge syringe needle (BD 1 ml 21G1 Latex Free Syringe PrecisionGlide® Needle, 0.8 mm×25 mm, #309624) and dilutions were completed and plated on YEMA plates. The cell counts were available after five days incubation at 30° C. and the percent kill of the EMS application rate was calculated. To calculate the percent kill rate for each application rate, the following equation was used: ([cell count 0 μl EMS (control)−(cell count of μl EMS (treatment))÷cell count 0 μl EMS (control)]×100%). All other experiments following this experiment used this equation to calculate the percent kill rate.
# [1] = Table 12, 25 μl EMS, decreased washing
# [2] = Table 14 (repeat of Table 13), 40 μl EMS
# [3] = Table 14 (repeat of Table 13), 45 μl EMS
# [4] = Table 15 (repeat of Table 14), 45 μl EMS
# [5] = Table 15 (repeat of Table 14), 50 μl EMS
smiles,measurement,setting,value
"CCOS(C)(=O)=O [EMS, ethyl methanesulfonate]",Cell counts (approximate cfu/ml),"Table 10, 10 μl EMS, 30 minutes at 30° C.",no difference
same,Cell counts (approximate cfu/ml),"Table 11, 15 μl EMS",2.24 × 10^9 cfu/ml
same,Percent kill rate,"Table 11, 15 μl EMS",10.17%
same,Cell counts (approximate cfu/ml),"Table 11, 25 μl EMS",1.72 × 10^9 cfu/ml
same,Percent kill rate,"Table 11, 25 μl EMS",30.92%
same,Cell counts (approximate cfu/ml),"Table 11, 50 μl EMS",1.67 × 10^1 cfu/ml
same,Cell counts (approximate cfu/ml),[1],1.27 × 10^9 cfu/ml
same,Percent kill rate,[1],73.09%
same,Cell counts (approximate cfu/ml),"Table 12, 35 μl EMS",5.37 × 10^8 cfu/ml
same,Percent kill rate,"Table 12, 35 μl EMS",88.58%
same,Cell counts (approximate cfu/ml),"Table 12, 50 μl EMS",2.93 × 10^2 cfu/ml
same,Percent kill rate,"Table 12, 50 μl EMS",100%
same,Cell counts (approximate cfu/ml),"Table 13, 40 μl EMS",6.97 × 10^8 cfu/ml
same,Percent kill rate,"Table 13, 40 μl EMS",82.26%
same,Cell counts (approximate cfu/ml),"Table 13, 45 μl EMS",8.57 × 10^7 cfu/ml
same,Percent kill rate,"Table 13, 45 μl EMS",97.82%
same,Cell counts (approximate cfu/ml),"Table 13, 50 μl EMS",2.65 × 10^5 cfu/ml
same,Percent kill rate,"Table 13, 50 μl EMS",99.99%
same,Cell counts (approximate cfu/ml),[2],1.35 × 10^9 cfu/ml
same,Percent kill rate,[2],99.81%
same,Cell counts (approximate cfu/ml),[3],5.27 × 10^8 cfu/ml
same,Percent kill rate,[3],99.93%
same,Cell counts (approximate cfu/ml),"Table 14 (repeat of Table 13), 50 μl EMS",2.19 × 10^6 cfu/ml
same,Cell counts (approximate cfu/ml),[4],3.33 × 10^4 cfu/ml
same,Percent kill rate,[4],99.98%
same,Cell counts (approximate cfu/ml),[5],4.33 × 10^1 cfu/ml
same,Percent kill rate,[5],100%
